In US10828331B2, “Cellular compositions used to restore stem cell or progenitor cell function and methods related thereto” (Emory University, priority 2012, dated 2020):

What was measured:
[1] = tested on: mouse neural progenitors and mouse embryonic fibroblasts; conditions: in combination with two factors (Oct4 and Klf4); cited from earlier work
diabetic MSCs = experiment: real-time RT-PCR of angiogenic genes in compound-treated diabetic MSCs; format: cell-based, rat; conditions: D-MSCs treated with epigenetic compounds for 7 days, FIG. 1
Experimental: To reprogram diabetic MSCs with epigenetic compounds, cultured D-MSCs were treated with HDAC inhibitor: Vorinostat or suberoylanilide hydroxamic acid (SAHA); DNA methyltransferase inhibitor: Decitabine (trade name Dacogen), or 5-aza-2′-deoxycytidine (5-aza); multiple histone 3 lysine 9 (H3K9) methyltransferases G9a and GLP inhibitor: BIX-01294; and GSK3β inhibitor: CHIR99021 for 7 more days. N-MSCs and D-MSCs were cultured by a standard MSC culture method. The cultured MSCs are typically reseeded at day 4 and cultured for another 4 days. To examine the expression levels of angiogenic genes, we isolated RNAs from N-, D-, or epigenetic compound treated reprogrammed D-MSCs (RD-MSCs), and performed real-time RT-PCR with specific primers of angiogenic genes.
Diabetes was induced in 8 week-old male Fischer 344 rats by intravenous injection of streptozotocin ([…]). Blood glucose levels were measured using an Accu-Check glucometer (Roche, Indianapolis, Ind.) after one week and two months. […]
Gene expression was determined by TaqMan® real-time quantitative PCR on the 7300 Sequence Detection System (Applied Biosystems) using TaqMan® PCR Master Mix (Applied Biosystems). […] Relative mRNA expression of target gene normalized to GAPDH was calculated by using the formula Relative Expression Level=2−ΔCt, where ΔCt=Ct gene of interest−Ct GAPDH. […]

Compound | reprogramming efficiency [1] | expression of major angiogenic genes (diabetic MSCs)
COc1cc2nc(N3CCCN(C)CC3)nc(NC3CCN(Cc4ccccc4)CC3)c2cc1OC [BIX01294] | enhanced the reprogramming efficiency | –
COC(=O)C1=C(C)NC(C)=C([N+](=O)[O-])C1c1ccccc1C(F)(F)F (stereo not drawn) [BayK8644, 1,4-dihydro-2,6-dimethyl-5-nitro-4-[2-(trifluoromethyl)phenyl]-3-pyridinecarboxylic acid, methyl ester] | enhanced the reprogramming efficiency | –
O=C(CCCCCCC(=O)Nc1ccccc1)NO [SAHA, suberoylanilide hydroxamic acid] | – | significant increased pattern in most of genes
